Reference: patent US20260374754A1, “N-((ISOQUINOLIN-6-YL)METHYL)-1H-PYRAZOLE-4-CARBOXAMIDE DERIVATIVES AS PLASMA KALLIKREIN INHIBITORS FOR THE TREATMENT OF HEREDITARY ANGIODEMA” (Takeda Pharmaceutical Company Limited, priority 2022, published 2026)
Structures can show the parent of a compound that is named as a salt.

Target: human activated kallikrein enzyme (Homo sapiens, UniProt P03952)
Test: Inhibition of human activated plasma kallikrein, fluorogenic PFR-AMC substrate, 500 pM enzyme format
Assay type: biochemical
Settings: 500 pM activated kallikrein; 300 μM PFR-AMC; 30 min preincubation; 10 min room temperature; pH 7.5; read-out: Primary Dose Response Assay: Average EC50
Summary of the method: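 500 pM activated kallikrein preincubated 30 min at room temperature with inhibitors in pH 7.5 Tris/EDTA/NaCl buffer with PEG-400 and Triton X-100. Reaction started with 300 μM PFR-AMC, run 10 min at room temperature; AMC fluorescence read at ex 380/em 460 nm.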

Chain of human activated kallikrein enzyme (P03952 391-638 limits assumed): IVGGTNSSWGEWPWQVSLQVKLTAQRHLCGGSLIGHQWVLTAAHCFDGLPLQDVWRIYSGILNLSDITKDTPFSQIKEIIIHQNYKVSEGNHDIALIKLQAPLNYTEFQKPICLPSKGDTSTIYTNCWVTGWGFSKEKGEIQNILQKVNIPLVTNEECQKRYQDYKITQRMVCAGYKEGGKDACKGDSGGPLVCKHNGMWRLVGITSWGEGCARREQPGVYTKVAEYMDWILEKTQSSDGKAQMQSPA
Chain of human activated kallikrein enzyme (P03952 20-390 partner limits assumed): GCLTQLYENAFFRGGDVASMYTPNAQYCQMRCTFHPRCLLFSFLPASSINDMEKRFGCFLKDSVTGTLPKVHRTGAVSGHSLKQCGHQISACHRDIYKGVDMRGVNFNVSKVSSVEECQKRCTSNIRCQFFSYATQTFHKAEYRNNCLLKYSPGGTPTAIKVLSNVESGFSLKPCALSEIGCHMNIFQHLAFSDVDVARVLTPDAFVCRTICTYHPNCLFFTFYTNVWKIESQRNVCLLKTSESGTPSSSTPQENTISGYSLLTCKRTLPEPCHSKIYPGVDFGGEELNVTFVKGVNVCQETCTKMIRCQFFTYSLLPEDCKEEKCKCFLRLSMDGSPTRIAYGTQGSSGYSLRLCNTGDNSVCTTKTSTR

Compound	EC50
Cc1cc2c(N)nccc2c(C)c1CNC(=O)c1cnn(Cc2ccc(CC(=O)Nc3ccccc3)cc2)c1 [Example 227, N-((1-amino-5,7-dimethylisoquinolin-6-yl)methyl)-1-(4-(2-oxo-2-(phenylamino)ethyl)benzyl)-1H-pyrazole-4-carboxamide]	10 to 100 nM
Cc1cc2c(N)nccc2c(C)c1CNC(=O)c1cnn(Cc2ccc(C(F)(F)F)cc2)c1 [Example 93, N-((1-amino-5,7-dimethylisoquinolin-6-yl)methyl)-1-(4-(trifluoromethyl)benzyl)-1H-pyrazole-4-carboxamide]	10 to 100 nM
Cc1cc2c(N)nccc2c(C)c1CNc1cc(NCc2cn3c(C)c(Cl)ccc3n2)ncn1 [Example 330, N^4-((1-amino-5,7-dimethylisoquinolin-6-yl)methyl)-N^6-((6-chloro-5-methylimidazo[1,2-a]pyridin-2-yl)methyl)pyrimidine-4,6-diamine]	< 1 nM
Cc1cc2c(N)nccc2c(C)c1CNc1cc(OCc2cn3cc(C4CC4)ccc3n2)cnc1C(=O)O [Example 495, 3-(((1-amino-5,7-dimethylisoquinolin-6-yl)methyl)amino)-5-((6-cyclopropylimidazo[1,2-a]pyridin-2-yl)methoxy)picolinic acid]	> 1000 nM
Cc1cc2c(N)nccc2c(C)c1CNc1cc(NCc2ccc3c(-n4ccccc4=O)cccc3c2)ncn1 [Example 245, 1-(6-(((6-(((1-amino-5,7-dimethylisoquinolin-6-yl)methyl)amino)pyrimidin-4-yl)amino)methyl)naphthalen-1-yl)pyridin-2(1H)-one]	< 1 nM
Cc1ccc(Cn2cc(C(=O)NCc3c(C)cc4c(N)nccc4c3C)cn2)cc1C(F)(F)F [Example 36, N-((1-amino-5,7-dimethylisoquinolin-6-yl)methyl)-1-(4-methyl-3-(trifluoromethyl)benzyl)-1H-pyrazole-4-carboxamide]	1 to 10 nM
Cc1cc2c(N)nccc2c(C)c1CNc1cc(OCc2ccc(Oc3cccn(C)c3=O)cc2)cnn1 [Example 427, 3-(4-(((6-(((1-amino-5,7-dimethylisoquinolin-6-yl)methyl)amino)pyridazin-4-yl)oxy)methyl)phenoxy)-1-methylpyridin-2(1H)-one]	< 1 nM
Cc1ccc2nc(C(CO)n3cc(C(=O)NCc4c(C)cc5c(N)nccc5c4C)cn3)cn2c1 (centres unmarked) [Example 130, N-((1-amino-5,7-dimethylisoquinolin-6-yl)methyl)-1-(2-hydroxy-1-(6-methylimidazo[1,2-a]pyridin-2-yl)ethyl)-1H-pyrazole-4-carboxamide]	< 1 nM
Cc1cc2c(N)nccc2c(C)c1CN1C(=O)c2ncc(NCc3cn4cc(C5CC5)ccc4n3)cc21 [Example 496, 7-((1-amino-5,7-dimethylisoquinolin-6-yl)methyl)-4-(((6-cyclopropylimidazo[1,2-a]pyridin-2-yl)methyl)amino)-2,7-diazabicyclo[4.2.0]octa-1,3,5-trien-8-one]	100 to 1000 nM
Cc1cc2c(N)nccc2c(C)c1CNC(=O)c1cnn(Cc2cn3cc(C4CC4C)ccc3n2)c1 (centres unmarked) [Example 178, N-((1-amino-5,7-dimethylisoquinolin-6-yl)methyl)-1-((6-(2-methylcyclopropyl)imidazo[1,2-a]pyridin-2-yl)methyl)-1H-pyrazole-4-carboxamide]	< 1 nM

Now from value to compound:

EC50	Compound
< 1 nM	Cc1ccc2ccc(Cn3cc(C(=O)NCc4c(C)cc5c(N)nccc5c4C)cn3)cc2n1 [Example 27, N-((1-amino-5,7-dimethylisoquinolin-6-yl)methyl)-1-((2-methylquinolin-7-yl)methyl)-1H-pyrazole-4-carboxamide]
< 1 nM	Cc1cc2c(N)nccc2c(C)c1CNC(=O)c1cnn(Cc2cn3c(Cl)c(Br)ccc3n2)c1 [Example 138, N-((1-amino-5,7-dimethylisoquinolin-6-yl)methyl)-1-((6-bromo-5-chloroimidazo[1,2-a]pyridin-2-yl)methyl)-1H-pyrazole-4-carboxamide]
< 1 nM	Cc1ccc2cc(CNc3cc(NCc4c(C)cc5c(N)nccc5c4C)ncn3)ccc2n1 [Example 335, N^4-((1-amino-5,7-dimethylisoquinolin-6-yl)methyl)-N^6-((2-methylquinolin-6-yl)methyl)pyrimidine-4,6-diamine]
< 1 nM	Cc1cc2c(N)nccc2c(C)c1CNc1cc(C(F)c2cn3cc(C4CC4)ccc3n2)ncn1 (centres unmarked) [Example 405, 6-(((6-((6-cyclopropylimidazo[1,2-a]pyridin-2-yl)fluoromethyl)pyrimidin-4-yl)amino)methyl)-5,7-dimethylisoquinolin-1-amine]
1 to 10 nM	COc1ccc2nc(Cl)c(Cn3cc(C(=O)NCc4c(C)cc5c(N)nccc5c4C)cn3)cc2c1 [Example 109, N-((1-amino-5,7-dimethylisoquinolin-6-yl)methyl)-1-((2-chloro-6-methoxyquinolin-3-yl)methyl)-1H-pyrazole-4-carboxamide]
100 to 1000 nM	Cc1cc2c(N)nccc2c(C)c1CNC(=O)c1cnn(Cc2cccc(F)c2)c1 [Example 45, N-((1-amino-5,7-dimethylisoquinolin-6-yl)methyl)-1-(3-fluorobenzyl)-1H-pyrazole-4-carboxamide]
< 1 nM	Cc1cc2c(N)nccc2c(C)c1CNc1cc(NCc2ccc3ncc(F)cc3c2)ncn1 [Example 334, N^4-((1-amino-5,7-dimethylisoquinolin-6-yl)methyl)-N^6-((3-fluoroquinolin-6-yl)methyl)pyrimidine-4,6-diamine]
< 1 nM	Cc1cc2c(N)nccc2c(C)c1CNC(=O)c1cnn(Cc2ccc(Cc3cccn(C)c3=O)cc2)c1 [Example 30, N-((1-amino-5,7-dimethylisoquinolin-6-yl)methyl)-1-(4-((1-methyl-2-oxo-1,2-dihydropyridin-3-yl)methyl)benzyl)-1H-pyrazole-4-carboxamide]
1 to 10 nM	CC(=O)Nc1nccc2cc(C)c(CNc3cc(NCc4ccc(Cn5ccccc5=O)cc4)ncn3)c(C)c12 [Example 247, N-(6,8-dimethyl-7-(((6-((4-((2-oxopyridin-1(2H)-yl)methyl)benzyl)amino)pyrimidin-4-yl)amino)methyl)isoquinolin-1-yl)acetamide]
1 to 10 nM	Cc1cc2c(N)nccc2c(C)c1CNc1cc(N(C)Cc2ccc3ncccc3c2)cnn1 [Example 428, N^3-((1-amino-5,7-dimethylisoquinolin-6-yl)methyl)-N^5-methyl-N^5-(quinolin-6-ylmethyl)pyridazine-3,5-diamine]
1 to 10 nM	Cc1cc2c(N)nccc2c(C)c1CNC(=O)c1cnn(Cc2ccc3cc(Cl)ccc3n2)c1 [Example 157, N-((1-amino-5,7-dimethylisoquinolin-6-yl)methyl)-1-((6-chloroquinolin-2-yl)methyl)-1H-pyrazole-4-carboxamide]
1 to 10 nM	Cc1cc2c(N)nccc2c(C)c1CNc1cc(NCc2ccc3c(c2)OCCN3C)ncn1 [Example 326, N^4-((1-amino-5,7-dimethylisoquinolin-6-yl)methyl)-N^6-((4-methyl-3,4-dihydro-2H-benzo[b][1,4]oxazin-7-yl)methyl)pyrimidine-4,6-diamine, formic acid salt]
1 to 10 nM	CC(C)=Cc1ccc2nc(Cn3cc(C(=O)NCc4c(C)cc5c(N)nccc5c4C)cn3)cn2c1 [Example 179, N-((1-amino-5,7-dimethylisoquinolin-6-yl)methyl)-1-((6-(2-methylprop-1-en-1-yl)imidazo[1,2-a]pyridin-2-y1)methyl)-1H-pyrazole-4-carboxamide]
